Read-outs that look alike come from different tables or passages of the source.
Key:
Format in all cases: biochemical
Human Jak2 kinase domain = Human Jak2 kinase domain (Homo sapiens (Human), UniProt O60674); assay: Jak2 Inhibition Assay (Omnia kinase assay); conditions: for inhibition at 1 µM: 1000 nM test compound
[1] = molecular target: GST-tagged human Jak1 kinase domain (Homo sapiens (Human), UniProt P23458); assay: Jak1 Inhibition Assay (Omnia kinase assay); conditions: Table 2; for IC50: 500 μM ATP
Method: (§1) The assays described in Examples C, D, E and F for the determination of JAK1, JAK2, JAK3 and Tyk2 kinase activity, respectively, utilized the Omnia® Kinase fluorescence peptide substrate-based technology (Invitrogen). […] The reactions were therefore read at excitation 360 nm and emission was measured at 485 nm every 50 seconds for 45 minutes using a PerkinElmer EnVision Multilabel Plate Reader.
(§2) The final buffer conditions for each of the JAK1, JAK2, JAK3 and Tyk2 assays were as follows: 25 mM HEPES, pH 7.4, 10 mM MgCl2, 0.01% Triton X-100 and 1 mM DTT.
(§3) Compounds were prepared at 50× the final concentration in DMSO by conducting 3-fold serial dilutions from a 500-μM or 1000-μM intermediate dilution to give a 10-point dosing curve having a high dose of 10 or 20 μM. Two-μL aliquots of these were transferred to a fresh plate for a ten-fold intermediate dilution with assay buffer. Five-μL aliquots of the diluted compounds were then transferred to 20-μL of assay mixtures described in Examples C, D, E and F for a final concentration of DMSO of 2%. A standard or reference compound was typically included on each assay plate to validate that plate. For each plate, percent of control (POC) values were calculated for each well according to the following equation:
(§4) [formula] • where • Xmax=Average Uninhibited Controls • Xmin=Average Background IC50's were estimated from the POC's using a standard 4-parameter logistic model:
(§5) [formula] • where • A=Minimum Y (Bottom Asymptote) • B=Maximum Y (Top Asymptote) • C=EC50 • D=Slope Factor • X=Compound Concentration (nM) • Y=POC
(§6) The IC50 is defined as the concentration of inhibitor at which the POC equals 50 for the fitted curve.
Compounds of Formula I were screened for their ability to inhibit Jak1 using the general enzyme inhibition assay method, in which the assay mixture contained 500 μM ATP, 8 μM Omnia® Y12 peptide (Catalog # IVGN KPZ3121C; Invitrogen Corporation, Carlsbad, Calif.) and 5 nM Jak1 in a total volume of 20 μL. […] (catalog # IVGN PV4774).

Human Tyk2 kinase domain = Human Tyk2 kinase domain (Homo sapiens (Human), UniProt P29597); assay: Tyk2 Inhibition Assay (Omnia kinase assay); conditions: Table 2; for IC50: 500 μM ATP
Method: as §1, §2, §3, §4, §5, §6
Compounds of Formula I were screened for their ability to inhibit Tyk2 using the general enzyme inhibition assay method, in which the assay mixture contained 500 μM ATP, 8 μM Omnia® Y12 peptide (Catalog # IVGN KPZ3121C; Invitrogen Corporation, Carlsbad, Calif.) and 1 nM Tyk2 in a total volume of 20 μL. Human Tyk2 kinase domain, comprising amino acids 886 to 1187 with 10 additional histidine residues (histidine tag) on the carboxy terminus, was expressed and purified from bacculovirus in-house at Array BioPharma Inc. (Boulder, Colo.). The histidine tag was cleaved after purification using standard conditions.

[2] = molecular target: GST-tagged human Jak3 kinase domain (Homo sapiens (Human), UniProt P52333); assay: Jak3 Inhibition Assay (Omnia kinase assay); conditions: Table 2; for IC50: 500 μM ATP
Method: as §1, §2, §3, §4, §5, §6
Compounds of Formula I were screened for their ability to inhibit Jak3 using the general enzyme inhibition assay method, in which the assay mixture contained 500 μM ATP, 10 μM Omnia® Y7 peptide (Catalog # IVGN KNZ3071C, Invitrogen Corporation, Carlsbad, Calif.) and 1.5 nM Jak3 in a total volume of 20 μL. GST-tagged human Jak3 kinase domain comprising amino acids 781-1124 was purchased from Invitrogen Corporation, Carlsbad, Calif. (catalog # IVGN PV3855).

[3] = molecular target: TrkA (histidine-tagged recombinant human TrkA, cytoplasmic domain) (Homo sapiens (Human), UniProt P04629); assay: TrkA ELISA Assay
Procedure, shortened: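 His-tagged human TrkA cytoplasmic domain phosphorylated poly(Glu,Ala,Tyr 6:3:1) coated at 0.025 mg/mL, with inhibitors present. Phosphotyrosine was detected with HRP-conjugated PY20 antibody (0.2 μg/mL) and TMB, read as absorbance at 450 nm after phosphoric acid stop.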

[4] = Table 1, 500 μM ATP, >1000 nM when >50% inhibition not observed at 1000 nM, read-out: Jak2 Enzyme IC50
[5] = Table 2, 500 μM ATP, read-out: Jak2 IC50
[6] = Table 1, ELISA, 500 μM ATP, read-out: TrkA Enzyme IC50

Chain of TrkA (histidine-tagged recombinant human TrkA, cytoplasmic domain) (P04629 440-796): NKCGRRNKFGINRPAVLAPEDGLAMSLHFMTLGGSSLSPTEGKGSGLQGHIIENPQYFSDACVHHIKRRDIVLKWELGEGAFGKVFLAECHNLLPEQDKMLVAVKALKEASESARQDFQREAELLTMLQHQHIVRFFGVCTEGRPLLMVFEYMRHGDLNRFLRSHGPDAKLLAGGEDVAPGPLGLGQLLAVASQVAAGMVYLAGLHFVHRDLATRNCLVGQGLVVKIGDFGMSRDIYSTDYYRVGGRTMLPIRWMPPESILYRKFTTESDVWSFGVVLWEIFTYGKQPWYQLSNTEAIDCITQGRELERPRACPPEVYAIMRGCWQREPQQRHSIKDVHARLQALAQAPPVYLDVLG
Chain of Human Tyk2 kinase domain (P29597 886-1187): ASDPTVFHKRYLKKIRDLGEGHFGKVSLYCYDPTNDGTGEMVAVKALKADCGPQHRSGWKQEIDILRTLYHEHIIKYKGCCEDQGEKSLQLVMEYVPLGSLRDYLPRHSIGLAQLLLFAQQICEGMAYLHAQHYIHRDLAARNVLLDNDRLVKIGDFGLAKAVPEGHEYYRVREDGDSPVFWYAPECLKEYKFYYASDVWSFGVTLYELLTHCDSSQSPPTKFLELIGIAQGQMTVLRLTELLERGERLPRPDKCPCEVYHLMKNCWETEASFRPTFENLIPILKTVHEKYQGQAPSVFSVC
Chain of GST-tagged human Jak1 kinase domain (P23458 866-1154): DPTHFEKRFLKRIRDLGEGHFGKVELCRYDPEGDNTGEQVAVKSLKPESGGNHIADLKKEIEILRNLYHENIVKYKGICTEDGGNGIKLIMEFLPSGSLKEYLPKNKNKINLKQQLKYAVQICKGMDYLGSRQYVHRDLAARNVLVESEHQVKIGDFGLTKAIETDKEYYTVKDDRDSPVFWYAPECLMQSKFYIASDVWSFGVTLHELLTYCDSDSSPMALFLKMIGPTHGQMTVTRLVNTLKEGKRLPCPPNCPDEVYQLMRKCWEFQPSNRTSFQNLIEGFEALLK
Chain of GST-tagged human Jak3 kinase domain (P52333 781-1124): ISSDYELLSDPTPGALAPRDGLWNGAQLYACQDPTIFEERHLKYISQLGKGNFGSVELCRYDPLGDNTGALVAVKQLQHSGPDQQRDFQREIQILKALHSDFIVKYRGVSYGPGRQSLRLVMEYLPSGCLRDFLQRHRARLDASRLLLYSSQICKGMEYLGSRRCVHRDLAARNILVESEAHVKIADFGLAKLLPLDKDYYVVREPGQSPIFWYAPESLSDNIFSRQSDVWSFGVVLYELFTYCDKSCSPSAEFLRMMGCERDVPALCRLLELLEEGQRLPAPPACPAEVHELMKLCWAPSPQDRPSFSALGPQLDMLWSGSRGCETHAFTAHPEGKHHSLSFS
Chain of Human Jak2 kinase domain (O60674 808-1132): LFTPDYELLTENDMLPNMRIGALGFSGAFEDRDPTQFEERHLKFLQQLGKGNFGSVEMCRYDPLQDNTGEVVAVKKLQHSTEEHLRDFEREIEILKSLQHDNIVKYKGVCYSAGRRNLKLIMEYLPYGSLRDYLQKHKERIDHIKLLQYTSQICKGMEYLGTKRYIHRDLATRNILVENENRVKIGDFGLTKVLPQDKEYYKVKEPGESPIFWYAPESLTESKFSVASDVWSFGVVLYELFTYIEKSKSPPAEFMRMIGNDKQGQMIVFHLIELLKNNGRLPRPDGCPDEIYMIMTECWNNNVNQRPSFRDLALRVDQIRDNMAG

IC50 (Human Jak2 kinase domain; [4]) [µM] | IC50 [3, 6] [µM] | SMILES | further results
> 1 | 0.0171 | Cc1ncc(F)cc1[C@H]1CCCN1c1ccn2ncc(C(=O)NC3CC3)c2n1 (stereo in doubt) [Example 181, N-cyclopropyl-5-(2-(5-fluoro-2-methylpyridin-3-yl)pyrrolidin-1-yl)pyrazolo[1,5-a]pyrimidine-3-carboxamide] | IC50 (Human Jak2 kinase domain; [5]): > 1 µM; inhibition at 1 µM (Human Jak2 kinase domain; read-out: Jak2 (% inhibition at 1000 nM), Table 2): 18.1%; inhibition at 1 µM (Human Jak2 kinase domain; read-out: Jak2 Enzyme (% inhibition at 1000 nM), Table 1): 5.2%; IC50 [1]: > 1 µM; inhibition at 1 µM ([1]; read-out: Jak1 (% inhibition at 1000 nM), 1000 nM test compound): 12.8%; IC50 (Human Tyk2 kinase domain): > 1 µM; inhibition at 1 µM (Human Tyk2 kinase domain; read-out: Tyk2 (% inhibition at 1000 nM), 1000 nM test compound): 10.7%; IC50 [2]: > 1 µM; inhibition at 1 µM ([2]; read-out: Jak3 (% inhibition at 1000 nM), 1000 nM test compound): 8.9%; IC50 ([3]; Table 2, read-out: TrkA IC50): 0.0298 µM
> 1 | 0.00195 | NC(=O)c1cnn2ccc(N3CCC[C@@H]3c3cc(F)ccc3F)nc12 [Example 30, (R)-5-(2-(2,5-difluorophenyl)pyrrolidin-1-yl)pyrazolo[1,5-a]pyrimidine-3-carboxamide] | IC50 (Human Jak2 kinase domain; [5]): > 1 µM; IC50 [1]: > 1 µM; IC50 (Human Tyk2 kinase domain): > 1 µM; IC50 [2]: > 1 µM; IC50 ([3]; Table 2, read-out: TrkA IC50): 0.0019 µM
> 1 | 0.0493 | Nc1ncc(F)cc1[C@H]1CCCN1c1ccn2ncc(C(=O)N3CCC3)c2n1 [Example 221, (R)-(5-(2-(2-amino-5-fluoropyridin-3-yl)pyrrolidin-1-yl)pyrazolo[1,5-a]pyrimidin-3-yl)(azetidin-1-yl)methanone] | –
> 1 | 0.0524 | O=C(NOCCO)c1cnn2ccc(N3CCC[C@@H]3c3cc(F)cnc3Cl)nc12 [Example 225, (R)-5-(2-(2-chloro-5-fluoropyridin-3-yl)pyrrolidin-1-yl)-N-(2-hydroxyethoxy)pyrazolo[1,5-a]pyrimidine-3-carboxamide] | –
> 1 | 0.0105 | Cn1cc(F)cc([C@H]2CCCN2c2ccn3ncc(C(=O)NC(C)(C)C)c3n2)c1=O [Example 226, (R)—N-tert-butyl-5-(2-(5-fluoro-1-methyl-2-oxo-1,2-dihydropyridin-3-yl)pyrrolidin-1-yl)pyrazolo[1,5-a]pyrimidine-3-carboxamide] | –
0.446 | 0.0123 | CC(C)NC(=O)c1cnn2ccc(N3CCC[C@@H]3c3cc(F)cn(C)c3=O)nc12 [Example 227, (R)-5-(2-(5-fluoro-1-methyl-2-oxo-1,2-dihydropyridin-3-yl)pyrrolidin-1-yl)-N-isopropylpyrazolo[1,5-a]pyrimidine-3-carboxamide] | –
0.666 | 0.003 | Cn1cc(F)cc([C@H]2CCCN2c2ccn3ncc(C(=O)NC4CCC4)c3n2)c1=O [Example 230, (R)-N-cyclobutyl-5-(2-(5-fluoro-1-methyl-2-oxo-1,2-dihydropyridin-3-yl)pyrrolidin-1-yl)pyrazolo[1,5-a]pyrimidine-3-carboxamide] | –
> 1 | 0.0045 | Cn1cc(F)cc([C@H]2CCCN2c2ccn3ncc(C(=O)NCC4CC4)c3n2)c1=O [Example 232, (R)-N-(cyclopropylmethyl)-5-(2-(5-fluoro-1-methyl-2-oxo-1,2-dihydropyridin-3-yl)pyrrolidin-1-yl)pyrazolo[1,5-a]pyrimidine-3-carboxamide] | –
> 1 | 0.0759 | Cn1cc(F)cc([C@H]2CCCN2c2ccn3ncc(C(=O)N[C@H](CO)C(C)(C)C)c3n2)c1=O [Example 233, 5-((R)-2-(5-fluoro-1-methyl-2-oxo-1,2-dihydropyridin-3-yl)pyrrolidin-1-yl)-N-((S)-1-hydroxy-3,3-dimethylbutan-2-yl)pyrazolo[1,5-a]pyrimidine-3-carboxamide] | –
> 1 | 0.0101 | Cn1cc(F)cc([C@H]2CCCN2c2ccn3ncc(C(=O)Nc4ccc(F)cn4)c3n2)c1=O [Example 239, (R)-5-(2-(5-fluoro-1-methyl-2-oxo-1,2-dihydropyridin-3-yl)pyrrolidin-1-yl)-N-(5-fluoropyridin-2-yl)pyrazolo[1,5-a]pyrimidine-3-carboxamide] | –

Second part, the compound before the results:

SMILES | IC50 (Human Jak2 kinase domain; [4]) [µM] | IC50 [3, 6] [µM] | further results
COc1ncc(F)cc1[C@H]1CCCN1c1ccn2ncc(C(=O)N[C@H]3CC[C@H](O)CC3)c2n1 [Example 140, 5-((R)-2-(5-fluoro-2-methoxypyridin-3-yl)pyrrolidin-1-yl)-N-((trans)-4-hydroxycyclohexyl)pyrazolo[1,5-a]pyrimidine-3-carboxamide] | – | – | IC50 [1]: 0.546 µM; IC50 [2]: > 1 µM
CC(C)NC(=O)c1cnn2ccc(N3C[C@@H](O)C[C@@H]3c3cccc(F)c3)nc12 [Example 217, 5-((2R,4S)-2-(3-fluorophenyl)-4-hydroxypyrrolidin-1-yl)-N-isopropylpyrazolo[1,5-a]pyrimidine-3-carboxamide] | 0.551 | 0.0058 | –
CNC(=O)c1cnn2ccc(N3C[C@@H](O)C[C@@H]3c3cccc(F)c3)nc12 [Example 218, 5-((2R,4S)-2-(3-fluorophenyl)-4-hydroxypyrrolidin-1-yl)-N-methylpyrazolo[1,5-a]pyrimidine-3-carboxamide] | > 1 | 0.0339 | –
CC(C)NC(=O)c1cnn2ccc(N3[C@@H](c4cncc(F)c4)CC[C@@]3(C)CO)nc12 [Example 219, 5-((2S,5R)-5-(5-fluoropyridin-3-yl)-2-(hydroxymethyl)-2-methylpyrrolidin-1-yl)-N-isopropylpyrazolo[1,5-a]pyrimidine-3-carboxamide] | > 1 | 0.188 | –
C[C@H](NC(=O)c1cnn2ccc(N3[C@@H](c4cncc(F)c4)CC[C@@]3(C)CO)nc12)C(F)(F)F [Example 220, 5-((2S,5R)-5-(5-fluoropyridin-3-yl)-2-(hydroxymethyl)-2-methylpyrrolidin-1-yl)-N—((S)-1,1,1-trifluoropropan-2-yl)pyrazolo[1,5-a]pyrimidine-3-carboxamide] | – | 0.11 | IC50 (Human Jak2 kinase domain; read-out: Jak2 Enzyme IC50): > 1 µM
Cn1cc(F)cc([C@H]2CCCN2c2ccn3ncc(C(=O)Nc4cccnc4)c3n2)c1=O [Example 231, (R)-5-(2-(5-fluoro-1-methyl-2-oxo-1,2-dihydropyridin-3-yl)pyrrolidin-1-yl)-N-(pyridin-3-yl)pyrazolo[1,5-a]pyrimidine-3-carboxamide] | > 1 | 0.0087 | –
Cn1cc(F)cc([C@H]2CCCN2c2ccn3ncc(C(=O)N[C@@H]4CCCC[C@H]4O)c3n2)c1=O [Example 234, 5-((R)-2-(5-fluoro-1-methyl-2-oxo-1,2-dihydropyridin-3-yl)pyrrolidin-1-yl)-N-((1R,2R)-2-hydroxycyclohexyl)pyrazolo[1,5-a]pyrimidine-3-carboxamide] | > 1 | 0.0107 | –
Cn1cc(F)cc([C@H]2CCCN2c2ccn3ncc(C(=O)NC4(C)CC4)c3n2)c1=O [Example 237, (R)-5-(2-(5-fluoro-1-methyl-2-oxo-1,2-dihydropyridin-3-yl)pyrrolidin-1-yl)-N-(1-methylcyclopropyl)pyrazolo[1,5-a]pyrimidine-3-carboxamide] | 0.616 | 0.0021 | –

Source: patent US8791123B2, “Substituted pyrazolo[1,5-a]pyrimidine compounds as Trk kinase inhibitors” (Array Biopharma, Inc., priority 2009, dated 2014)
